# Assay results taken from US20240262844A1, “PYRIDINIUM SALTS AND METHODS OF USE” (UNIVERSITY OF WYOMING, priority 2023, published 2024).
# Structures can show the parent of a compound that is named as a salt.
# Tests used:
# [1] = target: T1, β2-Microglobulin (11.7 kDa) (Homo sapiens, UniProt P61769); assay: Photochemical labeling of β2-microglobulin (LC/MS, MS-MS); type: biochemical
# T1 construct: β2-microglobulin (Human Urine≥98% (SDS-PAGE)); purchased Lee Biosolutions; host or cells: human urine
# T1 sequence (P61769 21-119): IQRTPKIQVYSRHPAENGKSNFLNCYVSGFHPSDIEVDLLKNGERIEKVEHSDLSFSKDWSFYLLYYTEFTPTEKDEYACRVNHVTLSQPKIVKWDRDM
# Description: General Procedure B: Photochemical Irradiation of Peptides and Proteins: To a 2 mL Pyrex LC/MS vial (Thermo model #03-391-39) were sequentially added solutions containing the desired biomolecule, glutathione (GSH), pyridinium salt, and ammonium acetate (NH4OAc). The resulting solution was diluted to a final volume of 500 μL and then sparged using nitrogen for a minimum of 30 minutes prior to irradiation. The actively sparging solution was then placed in an EvoluChem™ PhotoRedOx Box photoreactor that was equipped with a Kessil, PR160 427 nm LED Lamp and was then irradiated (100% lamp intensity) for the designated time at room temperature while maintaining active sparging. The resultant reaction mixture was then analyzed directly by LC/MS. Analysis of labeling outcomes using LC/MS was performed either by extracted ion chromatogram intensities (method A) or by integrating the area under the peaks associated with peptide content (method B). […]
# Labeling of β2-Microglobulin with Pyridinium Salt 2a (B2-Microglobulin-2a Conjugate). […] The reaction mixture was directly analyzed by LC/MS using method A and was estimated to have proceeded with 88% conversion with a >20:1 mono:di labeled ratio and 7% glutathionylation of all unlabeled and labeled protein content. β2-Microglobulin-2a conjugate (retention time (Tr)=3.26-4.70 min). […]
# [2] = tested on: Leuprolide (1.2 kDa); assay: Photochemical labeling of leuprolide (LC/MS); type: biochemical; conditions: 10 μM leuprolide, 100 μM pyridinium salt, 300 μM glutathione, 20 mM NH4OAc pH 6.9, 427 nm, 30 minutes
# Description: General Procedure B: Photochemical Irradiation of Peptides and Proteins: To a 2 mL Pyrex LC/MS vial (Thermo model #03-391-39) were sequentially added solutions containing the desired biomolecule, glutathione (GSH), pyridinium salt, and ammonium acetate (NH4OAc). The resulting solution was diluted to a final volume of 500 μL and then sparged using nitrogen for a minimum of 30 minutes prior to irradiation. The actively sparging solution was then placed in an EvoluChem™ PhotoRedOx Box photoreactor that was equipped with a Kessil, PR160 427 nm LED Lamp and was then irradiated (100% lamp intensity) for the designated time at room temperature while maintaining active sparging. The resultant reaction mixture was then analyzed directly by LC/MS. Analysis of labeling outcomes using LC/MS was performed either by extracted ion chromatogram intensities (method A) or by integrating the area under the peaks associated with peptide content (method B). These values were totaled, and estimated percentages were assigned according to relative intensities of peaks or ion counts.
# Labeling of Leuprolide with Pyridinium Salt 2a (Leuprolide-2a Conjugate). […] The reaction mixture was analyzed directly by LC/MS using method B and was estimated to have proceeded with 91% conversion, a >20:1 mono:di labeled ratio, and 4% of +1 label+glutathionylation. […]
compound,measurement,setting,value
"COC(=O)N(C)[n+]1c(C)cc(-c2ccc3cc(OC)ccc3c2)cc1C [Pyridinium salt 2a, 1-((methoxycarbonyl)(methyl)amino)-4-(6-methoxynapthalen-2-yl)-2,6-dimethylpyridin-1-ium tetrafluoroborate]",glutathionylation of all unlabeled and labeled protein content,"[1]; 10 μM β2-microglobulin, 200 μM pyridinium salt, 1 mM glutathione, 30 minutes",7%
same,site of tryptophan modification,[1]; digestion/MS-MS,Trp-60
same,conversion,[2],91%
